Experiment [1] has as its system HeLa. The experiment in a line: Induction of pore formation in human HeLa cell membrane at 2xIC50 after 12 hrs by SEM analysis. The experiment is classed as cell-based.
In experiment [2] the test system is BE(2)-C. The experiment in a line: Antiproliferative activity against human BE(2)-C cells assessed as reduction in cell viability after 48 hrs by MTT assay. In kind it is functional, cell-based. A general note: Tetrazolium assays rely on reduction of a dye to a coloured formazan, in cell work by metabolically active cells.
Experiment [3] relates to HeLa. Kind of experiment: Antiproliferative activity against human HeLa cells assessed as reduction in cell viability at 1000 uM after 48 hrs by MTT assay relative to control. The experiment is classed as functional.
In experiment [4] the test system is Candida albicans. Kind of experiment: Antifungal activity against Candida albicans SC5314 at 100 uM after 48 hrs. In kind it is functional, organism-based.
Experiment [5] has as its system BE(2)-C. The experiment in a line: Induction of pore formation in human BE(2)-C cell membrane at 2xIC50 after 12 hrs by SEM analysis. In kind it is functional, cell-based.
Experiment [6] concerns BE(2)-C. The experiment in a line: Antiproliferative activity against human BE(2)-C cells assessed as reduction in cell viability at 1000 uM after 48 hrs by MTT assay relative to control. In kind it is functional.
In experiment [7] the test system is HeLa. The experiment in a line: Induction of membrane blebbing in human HeLa cells at 2xIC50 after 12 hrs by SEM analysis. The experiment is classed as cell-based. To be noted: Cell membrane.
In experiment [8] the test system is HeLa. The experiment in a line: Antiproliferative activity against human HeLa cells assessed as reduction in cell viability after 48 hrs by MTT assay. In kind it is functional, cell-based.
Experiment [9] has as its system BE(2)-C. Kind of experiment: Induction of membrane blebbing in human BE(2)-C cells at 2xIC50 after 12 hrs by SEM analysis. In kind it is cell-based. The note with it: Cell membrane.
Experiment [10] is described as follows: Selectivity ratio of IC50 for antiproliferative activity against human BE(2)-C cells to IC50 for antiproliferative activity against human HeLa cells after 48 hrs by MTT assay. The experiment is classed as functional.
The test system of experiment [11] is Candida albicans. Kind of experiment: Antifungal activity against Candida albicans SC5314 after 48 hrs. The experiment is classed as functional. To be noted: SC5314, 48 h.
In a further experiment the target is 20S proteasome. The experiment in a line: Inhibition of human 20S proteasome using Suc-LLVY-AMC as substrate measured every 5 mins for 120 mins by fluorescence based assay. The experiment is classed as protein-complex assay.
In experiment [12] the test system is Candida albicans. The experiment in a line: Induction of pore formation in Candida albicans SC5314 membrane by SEM analysis. The note with it: Cell membrane. The experiment is classed as organism-based.
The subject of experiment [13] is Candida albicans. The experiment in a line: Induction of hyphal disruption in Candida albicans SC5314 by SEM analysis. The note with it: Hyphae. The experiment is classed as organism-based.

Structures are written as SMILES. pIC50: −log10 of the molar value. Values after ≈ are worked out from the molar mass of the structure shown. Active and inactive are the calls of the source. The calls are words filed in the database; no cut-off is given here. Peptide text beside a SMILES is read from it.

Turning to `CC(=O)N[C@@H](Cc1ccc(O)cc1)C(=O)NCC(=O)N[C@@H](CCCNC(=N)N)C(=O)N[C@@H](CCCCN)C(=O)N[C@@H](CCCCN)C(=O)N[C@@H](CCCNC(=N)N)C(=O)N[C@@H](CCCNC(=N)N)C(=O)N[C@@H](CCC(N)=O)C(=O)N[C@@H](CCCNC(=N)N)C(=O)N[C@@H](CCCNC(=N)N)C(=O)N[C@@H](CCCNC(=N)N)C(=O)O`, the outcome with HeLa [1], with Candida albicans [4], in the experiment with BE(2)-C [5], in the experiment with HeLa [7] and with BE(2)-C [9] was inactive. Further, the negative logarithm of the IC50 (pIC50) in the experiment on BE(2)-C [2] was 4.03; in the experiment on HeLa [8], 4.20. For the same compound, the inhibition at 1000 µM in the experiment on HeLa [3] and in the experiment with BE(2)-C [6] was 70% throughout.
As for `CC(=O)N[C@@H](CC(C)C)C(=O)N[C@@H](CC(C)C)C(=O)N[C@H](C=O)CC(C)C` (Ac-Leu-Leu-Leu-aldehyde), the pIC50 was 4.21 with BE(2)-C [2], 4.41 in the experiment on HeLa [8] and 6.87 against 20S proteasome. Moreover, the “Ratio IC50” value in experiment [10] turned out to be 1.5. In addition, the MIC in the experiment with Candida albicans [11] is > 100 µM.
Consider `CC(=O)N[C@@H](Cc1ccc(O)cc1)C(=O)N[C@@H](CC(C)C)C(=O)N[C@@H](Cc1ccccc1)C(=O)N[C@H](C=O)CC(C)C` (Ac-YLFL-aldehyde), for which the pIC50 is 4.36 in the experiment on BE(2)-C [2], 4.53 in the experiment on HeLa [8] and 8.19 at 20S proteasome. Also, in [10], the “Ratio IC50” value is 1.5. For the same compound, in the experiment with Candida albicans [11], the MIC was > 100 µM.
As for `C[C@@H]1[C@H](O)[C@@H](C)/C=C/C=C/C=C/C=C/C=C/C=C/C=C/[C@H](O[C@@H]2O[C@H](C)[C@@H](O)[C@H](N)[C@@H]2O)C[C@@H]2O[C@](O)(C[C@@H](O)C[C@@H](O)[C@H](O)CC[C@@H](O)C[C@@H](O)CC(=O)O[C@H]1C)C[C@H](O)[C@H]2C(=O)O` [AMPHOTERICIN B], in the experiment on Candida albicans [12], the outcome was Active. In the experiment with Candida albicans [13], the outcome was inactive. The compound further gave an MIC in the experiment on Candida albicans [11] of 1.56 µM (≈ 1.44 µg/mL).

The pIC50 is the negative decadic logarithm of the IC50, by convention in mol/L. By inhibition is commonly meant the percentage by which the read-out fell short of the control. The MIC is the lowest concentration that inhibits growth of the organism.

The values are drawn from ChEMBL document CHEMBL4354831, “Novel Cell-Penetrating Peptide Conjugated Proteasome Inhibitors: Anticancer and Antifungal Investigations” (J Med Chem, 2020).
